This is an account of results in US10307413B2, “Tetrahydro- and dihydro-isoquinoline PRMT5 inhibitors and uses thereof” (Epizyme, Inc., priority 2013, dated 2019).

For assay [1], the system named is symmetric di-methyl arginine in Z-138 cells. As to the kind of experiment: Z-138 Methylation Assay (In Cell Western for symmetric di-methyl arginine and DNA content). Type of assay: cell-based. To be noted: Homo sapiens, read-out: ICW EC50. A digest of the protocol:
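In-cell western: symmetric di-methyl arginine signal ratioed to DRAQ5 DNA content after 96 h compound exposure of Z-138 cells seeded at 50,000 cells/mL.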

Assay [2] has as its system Z-138 cell line. Description: Z-138 Proliferation Assay (Cell Titer Glo, 5 days). The format is cell-based. To be noted: Homo sapiens, 120 h; Z-138 cells, 5 days; read-out: Proliferation EC50. A digest of the protocol: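 Viability via CellTiter-Glo luminescence (ATP) after 5-day incubation at 37 °C, 5% CO2. Compounds tested in triplicate, nine 3-fold steps, highest final concentration 20 μM in 0.2% DMSO; 50% inhibitory concentration by 4-parameter fit of normalized curves.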
In general terms: ATP-based viability assays read luminescence as a measure of living cells.

With `Cn1nccc1C(=O)NCC(O)CN1CCc2ccccc2C1` (stereo not drawn) [Compound 150], the EC50 in assay [1] was 0.101 to 1 µM; in assay [2], more than 20 µM.
Consider `O=C(NCC(O)CN1CCc2ccccc2C1)c1cccc(CO)c1` (stereo not drawn) [Compound 151], for which the values for the EC50 in assay [1] and in assay [2] were 0.101 to 1 µM and more than 20 µM, respectively.
Regarding `CC1CC(Nc2cccc(C(=O)NC[C@@H](O)CN3CCc4ccccc4C3)c2)CC(C)O1` (stereo partly drawn) [Compound 153], the EC50 in assay [1] is less than 0.1 µM; in assay [2], 0.101 to 1 µM.
For the molecule `O=C(NCC(O)CN1CCc2ccccc2C1)c1cccc(C2CCOC2)c1` (stereo not drawn) [Compound 154], the EC50 in assay [1] is 0.101 to 1 µM; in assay [2], 1 to 10 µM.
With `COc1ccc2cc(C(=O)NCC(O)CN3CCc4ccccc4C3)ccc2n1` (stereo not drawn) [Compound 155], the EC50 in assay [1] was 1 to 10 µM; in assay [2], more than 20 µM.
With `CC(=O)NCCN1CCN(Cc2cccc(C(=O)NCC(O)CN3CCc4ccccc4C3)c2)CC1` (stereo not drawn) [Compound 156], the values for the EC50 in assay [1] and in assay [2] were 0.101 to 1 µM and 1 to 10 µM, respectively.
As to `O=C(O)CN1CCN(Cc2cccc(C(=O)NCC(O)CN3CCc4ccccc4C3)c2)CC1` (stereo not drawn) [Compound 157], the EC50 in assay [1] was 1 to 10 µM; in assay [2], more than 20 µM.
With `NC(=O)CCCN1CCN(Cc2cccc(C(=O)NCC(O)CN3CCc4ccccc4C3)c2)CC1` (stereo not drawn) [Compound 159], the EC50 in assay [1] lay in the range of 0.101 to 1 µM; in assay [2] it was 1 to 10 µM.
For `COc1cc(CN2CCN(C)CC2)cc(C(=O)NCC(O)CN2CCc3ccccc3C2)c1` (stereo not drawn) [Compound 160], the EC50 in assay [1] was 0.101 to 1 µM; in assay [2], 10 to 50 µM.
Consider `CC(c1cccc(C(=O)NCC(O)CN2CCc3ccccc3C2)c1)N1CCN(C)CC1` (stereo not drawn) [Compound 161], for which the EC50 was less than 0.1 µM in assay [1] and 1 to 10 µM in assay [2].
The like results for `CS(=O)(=O)N1CCC(Oc2cccc(C(=O)NCC(O)CN3CCc4ccccc4C3)c2)C1` (stereo not drawn) [Compound 162] were, in that order, less than 0.1 µM and 1 to 10 µM.
In the case of `CN1CCN(Cc2ccc(C(=O)NCC(O)CN3CCc4ccccc4C3)cc2)CC1` (stereo not drawn) [Compound 163], the EC50 in assay [1] was less than 0.1 µM; in assay [2], 1 to 10 µM.
In the case of `O=C(NCC(O)CN1CCc2ccccc2C1)c1cccc(N2CCS(=O)(=O)CC2)c1` (stereo not drawn) [Compound 164], the EC50 in assay [1] was less than 0.1 µM; in assay [2], 1 to 10 µM.
The like results for `CCOC(=O)CN1CCN(Cc2cccc(C(=O)NCC(O)CN3CCc4ccccc4C3)c2)CC1` (stereo not drawn) [Compound 165] were, in that order, 0.101 to 1 µM and 1 to 10 µM.
As to `O=C(NC[C@H](O)CN1CCc2ccccc2C1)c1cc(NC2COC2)ncn1` [Compound 166, (S)—N-(3-(3,4-dihydroisoquinolin-2(1H)-yl)-2-hydroxypropyl)-6-(oxetan-3-ylamino)pyrimidine-4-carboxamide], the EC50 in assay [1] is less than 0.1 µM; in assay [2], 0.101 to 1 µM.
For the molecule `C[C@H]1CC(Nc2cccc(C(=O)NC[C@H](O)CN3CCc4ccccc4C3)c2)CCO1` (stereo partly drawn) [Compound 167], the EC50 is less than 0.1 µM in assay [1] and 0.101 to 1 µM in assay [2].
For the molecule `C[C@@H]1CC(Nc2cccc(C(=O)NC[C@H](O)CN3CCc4ccccc4C3)c2)CCO1` (stereo partly drawn) [Compound 168], the EC50 is less than 0.1 µM in assay [1] and 0.101 to 1 µM in assay [2].
With `O=C(NCC(O)CN1CCc2ccccc2C1)c1cc(NC2CCOCC2)n[nH]1` (stereo not drawn) [Compound 169], the figures for the EC50 in assay [1] and in assay [2] were 0.101 to 1 µM and 1 to 10 µM, respectively.
As to `O=C(NCC(O)CN1CCc2ccccc2C1)c1ncc[nH]1` (stereo not drawn) [Compound 170], the EC50 in assay [1] was 0.101 to 1 µM; in assay [2] it was more than 20 µM.
Consider `Cn1ccnc1C(=O)NCC(O)CN1CCc2ccccc2C1` (stereo not drawn) [Compound 171], for which the EC50 fell in the range of 0.101 to 1 µM in assay [1] and 1 to 10 µM in assay [2].
Turning to `NC(=O)CN1CCN(Cc2cccc(C(=O)NCC(O)CN3CCc4ccccc4C3)c2)CC1` (stereo not drawn) [Compound 172], the EC50 in assay [1] was less than 0.1 µM; in assay [2], 1 to 10 µM.
Consider `CNC(=O)CN1CCN(Cc2cccc(C(=O)NCC(O)CN3CCc4ccccc4C3)c2)CC1` (stereo not drawn) [Compound 173], for which the EC50 was less than 0.1 µM in assay [1] and 1 to 10 µM in assay [2].
For the molecule `CN(C)C(=O)CN1CCN(Cc2cccc(C(=O)NCC(O)CN3CCc4ccccc4C3)c2)CC1` (stereo not drawn) [Compound 174], the results for the EC50 in assay [1] and in assay [2] were less than 0.1 µM and 1 to 10 µM, respectively.
In the case of `CNC(=O)CCCN1CCN(Cc2cccc(C(=O)NCC(O)CN3CCc4ccccc4C3)c2)CC1` (stereo not drawn) [Compound 175], the EC50 in assay [1] lay in the range of 0.101 to 1 µM; in assay [2] it was 1 to 10 µM.
The like results for `O=C(NCC(O)CN1CCc2ccccc2C1)c1ccc(OC2CCNC2)cc1` (stereo not drawn) [Compound 176] were, in that order, less than 0.1 µM and 1 to 10 µM.
With `CN1CCC(Oc2ccc(C(=O)NCC(O)CN3CCc4ccccc4C3)cc2)C1` (stereo not drawn) [Compound 177], the EC50 in assay [1] is less than 0.1 µM; in assay [2], 1 to 10 µM.
In the case of `CN(C)CCCOc1ccc(C(=O)NCC(O)CN2CCc3ccccc3C2)cc1` (stereo not drawn) [Compound 178], the EC50 in assay [1] is less than 0.1 µM; in assay [2], 1 to 10 µM.
As to `O=C(NCC(O)CN1CCc2ccccc2C1)c1ccc(N2CCS(=O)(=O)CC2)cc1` (stereo not drawn) [Compound 179], the EC50 in assay [1] is less than 0.1 µM; in assay [2], 1 to 10 µM.
Regarding `O=C(NC[C@H](O)CN1CCc2ccccc2C1)c1cc(NC2CCNCC2)ncn1` [Compound 180], the EC50 lay within 0.101 to 1 µM in assay [1] and 10 to 50 µM in assay [2].
For `CN1CCC(Nc2cc(C(=O)NC[C@H](O)CN3CCc4ccccc4C3)ncn2)C1` (stereo partly drawn) [Compound 181], the EC50 is 0.101 to 1 µM in assay [1] and 1 to 10 µM in assay [2].
The like results for `O=C(NC[C@H](O)CN1CCc2ccccc2C1)c1cc(NC2CCN(CC(F)(F)F)C2)ncn1` (stereo partly drawn) [Compound 182] were, in that order, less than 0.1 µM and 1 to 10 µM.
For `O=C(NC[C@H](O)CN1CCc2ccccc2C1)c1cncc(OC2CCOCC2)c1` [Compound 183], the EC50 in assay [1] was less than 0.1 µM; in assay [2], 1 to 10 µM.
The like results for `O=C(NC[C@@H](O)CN1CCc2ccccc2C1)c1ccnc(NC2CCOCC2)c1` [Compound 184] were, in that order, less than 0.1 µM and 1 to 10 µM.
For `O=C(NC[C@@H](O)CN1CCc2ccccc2C1)c1cc(NC2CCOCC2)ncn1` [Compound 185], the results for the EC50 in assay [1] and in assay [2] were 0.101 to 1 µM and 1 to 10 µM, respectively.
Turning to `CN(C)CCN(C)c1cc(C(=O)NC[C@H](O)CN2CCc3ccccc3C2)ccn1` [Compound 186], the EC50 is less than 0.1 µM in assay [1] and 1 to 10 µM in assay [2].
The like results for `O=C(NC[C@H](O)CN1CCc2ccccc2C1)c1ccnc(NCC2CC2)c1` [Compound 187] were, in that order, less than 0.1 µM and 0.101 to 1 µM.
The like results for `O=C(NC[C@H](O)CN1CCc2ccccc2C1)c1ccnc(NC2CCC2)c1` [Compound 188] were, in that order, less than 0.1 µM and less than 0.1 µM.
In the case of `O=C(NC[C@H](O)CN1CCc2ccccc2C1)c1ccnc(NCc2ccncc2)c1` [Compound 189], the EC50 in assay [1] was less than 0.1 µM; in assay [2], 0.101 to 1 µM.
Turning to `O=C(NC[C@H](O)CN1CCc2ccccc2C1)c1ccnc(NCc2cccnc2)c1` [Compound 190], the EC50 in assay [1] is less than 0.1 µM; in assay [2], 0.101 to 1 µM.
On to `O=C(NC[C@H](O)CN1CCc2ccccc2C1)c1ccnc(NCc2ccccn2)c1` [Compound 191], for which the EC50 in assay [1] was less than 0.1 µM; in assay [2], 0.101 to 1 µM.
For `O=C(NC[C@H](O)CN1CCc2ccccc2C1)c1ccnc(NC2CCOCC2)c1` [Compound 192], the figures for the EC50 in assay [1] and in assay [2] were less than 0.1 µM and 0.101 to 1 µM, respectively.
The like results for `O=C(NC[C@H](O)CN1CCc2ccccc2C1)c1cc(NC2CCOCC2)ncn1` [Compound 193] were, in that order, less than 0.1 µM and 0.101 to 1 µM.
`CN(C)C(=O)CCCN1CCN(Cc2cccc(C(=O)NCC(O)CN3CCc4ccccc4C3)c2)CC1` (stereo not drawn) [Compound 194]: the EC50 lay in the range of 0.101 to 1 µM in assay [1] and 1 to 10 µM in assay [2].
Turning to `CN(CC(N)=O)Cc1cccc(C(=O)NCC(O)CN2CCc3ccccc3C2)c1` (stereo not drawn) [Compound 195], the EC50 is 0.101 to 1 µM in assay [1] and 10 to 50 µM in assay [2].
The like results for `CC(C)N1CCC(Oc2ccc(C(=O)NCC(O)CN3CCc4ccccc4C3)cc2)C1` (stereo not drawn) [Compound 196] were, in that order, less than 0.1 µM and 1 to 10 µM.
As to `CC(=O)N1CCC(Oc2ccc(C(=O)NCC(O)CN3CCc4ccccc4C3)cc2)C1` (stereo not drawn) [Compound 197], the EC50 in assay [1] was less than 0.1 µM; in assay [2], 0.101 to 1 µM.
`CS(=O)(=O)N1CCC(Oc2ccc(C(=O)NCC(O)CN3CCc4ccccc4C3)cc2)C1` (stereo not drawn) [Compound 198]: the EC50 is less than 0.1 µM in assay [1] and 0.101 to 1 µM in assay [2].
The like results for `O=C(NCC(O)CN1CCc2ccccc2C1)c1ccc(OC2CCN(CC(F)(F)F)C2)cc1` (stereo not drawn) [Compound 199] were, in that order, less than 0.1 µM and 1 to 10 µM.
The like results for `O=C(NC[C@H](O)CN1CCc2ccccc2C1)c1ccnc(NC2CCNCC2)c1` [Compound 200] were, in that order, 0.101 to 1 µM and 10 to 50 µM.
Consider `O=C(NC[C@H](O)CN1CCc2ccccc2C1)c1ccnc(NC2CCNC2)c1` (stereo partly drawn) [Compound 201], for which the EC50 in assay [1] fell in the range of 0.101 to 1 µM; in assay [2], 1 to 10 µM.
The like results for `CN1CCC(Oc2cc(C(=O)NC[C@H](O)CN3CCc4ccccc4C3)ccn2)CC1` [Compound 202] were, in that order, less than 0.1 µM and 1 to 10 µM.
With `O=C(NC[C@H](O)CN1CCc2ccccc2C1)c1ccnc(OC2CCN(CC(F)(F)F)CC2)c1` [Compound 203], the figures for the EC50 in assay [1] and in assay [2] were less than 0.1 µM and 0.101 to 1 µM, respectively.
As for `CS(=O)(=O)N1CCC(Oc2cc(C(=O)NC[C@H](O)CN3CCc4ccccc4C3)ccn2)CC1` [Compound 204], the EC50 is less than 0.1 µM in assay [1] and 0.101 to 1 µM in assay [2].
The like results for `CC(=O)N1CCC(Oc2cc(C(=O)NC[C@H](O)CN3CCc4ccccc4C3)ccn2)CC1` [Compound 205] were, in that order, less than 0.1 µM and 0.101 to 1 µM.
